Measured values: US8633245B2, “PAI-1 inhibitor” (Institute of Medicinal Molecular Design, Inc., priority 2008, dated 2014)

Target: T1, recombinant human PAI-1 (Homo sapiens, UniProt P05121)
T1 construct: purchased Molecular Innovations, Inc
Test: Test Example 2: human PAI-1 inhibitory activity (tPA fluorogenic substrate, pH 7.4 HEPES buffer)
Assay type: biochemical
Settings: human PAI-1
Procedure: 0.1 M HEPES, 0.1 M NaCl. 1 mM EDTA. 0.1% Polyethylene glycol 8,000 (Hampton Research Corporation),
2 mM Dimethyldecylphoshine oxide [Apo-10] (Fluka Corporation)

T1 sequence (P05121 24-402): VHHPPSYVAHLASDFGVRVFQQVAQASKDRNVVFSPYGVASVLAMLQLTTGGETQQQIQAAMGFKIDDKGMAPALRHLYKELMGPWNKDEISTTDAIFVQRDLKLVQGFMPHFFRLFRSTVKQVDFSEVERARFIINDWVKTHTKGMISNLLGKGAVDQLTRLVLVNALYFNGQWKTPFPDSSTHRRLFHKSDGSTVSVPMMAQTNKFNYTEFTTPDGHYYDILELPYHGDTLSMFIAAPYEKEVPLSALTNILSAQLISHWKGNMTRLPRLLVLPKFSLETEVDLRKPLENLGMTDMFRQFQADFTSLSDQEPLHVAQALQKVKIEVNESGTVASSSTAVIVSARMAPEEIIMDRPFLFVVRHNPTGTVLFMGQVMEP

Compound	Inhibition Rate of PAI-1 Activity (%) (compound concentration 0.1 μM)	Inhibition Rate of PAI-1 Activity (%) (compound concentration 0.3 μM)	Inhibition Rate of PAI-1 Activity (%) (compound concentration 1 μM)	Inhibition Rate of PAI-1 Activity (%) (compound concentration 3 μM)
Cc1cc(C)cc(Oc2cc(-c3ccc(C(C)(C)C)cc3)ccc2CCC(=O)O)c1 [Compound 499]	15%	14%	77%	98%
CC(Oc1cc(-c2ccc(OC(F)(F)F)cc2)ccc1/C=C/C(=O)O)c1ccccc1 (stereo not drawn) [Compound 500]	19%	14%	25%	80%
CC(Oc1cc(-c2ccc(OC(F)(F)F)cc2)ccc1CCC(=O)O)c1ccccc1 (stereo not drawn) [Compound 501]	12%	0%	12%	83%
CC(C)(C)c1ccc(Oc2cc(-c3cccc(OC(F)(F)F)c3)ccc2/C=C/C(=O)O)cc1 [Compound 503]	13%	27%	97%	93%
CC(C)(C)c1ccc(Oc2cc(-c3cccc(OC(F)(F)F)c3)ccc2CCC(=O)O)cc1 [Compound 504]	13%	26%	91%	>99%
O=C(O)/C=C/c1ccc(-c2ccc(OC(F)(F)F)cc2)cc1OC(c1ccccc1)c1ccccc1 [Compound 506]	2%	9%	78%	>99%
O=C(O)CCc1ccc(-c2ccc(OC(F)(F)F)cc2)cc1OC(c1ccccc1)c1ccccc1 [Compound 507]	6%	8%	49%	>99%

More lines, now with the values ahead:

Inhibition Rate of PAI-1 Activity (%) (compound concentration 0.1 μM)	Inhibition Rate of PAI-1 Activity (%) (compound concentration 0.3 μM)	Inhibition Rate of PAI-1 Activity (%) (compound concentration 1 μM)	Inhibition Rate of PAI-1 Activity (%) (compound concentration 3 μM)	Compound
18%	9%	48%	98%	O=C(O)CCc1ccc(-c2ccc(OC(F)(F)F)cc2)cc1OCCCSc1ccccc1 [Compound 508]
1%	22%	96%	>99%	CC(C)c1ccc(Oc2cc(-c3ccc(OC(F)(F)F)cc3)ccc2/C=C/C(=O)O)cc1 [Compound 509]
0%	8%	84%	>99%	CC(C)c1ccc(Oc2cc(-c3ccc(OC(F)(F)F)cc3)ccc2CCC(=O)O)cc1 [Compound 510]
11%	68%	>99%	>99%	CCCCc1ccc(Oc2cc(-c3ccc(OC(F)(F)F)cc3)ccc2/C=C/C(=O)O)cc1 [Compound 511]
18%	41%	96%	98%	CCCCc1ccc(Oc2cc(-c3ccc(OC(F)(F)F)cc3)ccc2CCC(=O)O)cc1 [Compound 512]
17%	7%	69%	>99%	CC(C)c1ccccc1Oc1cc(-c2ccc(OC(F)(F)F)cc2)ccc1OCC(=O)O [Compound 513]
21%	22%	96%	>99%	CC(C)(C)c1cccc(Oc2cc(-c3cccc(OC(F)(F)F)c3)ccc2/C=C/C(=O)O)c1 [Compound 514]
12%	16%	86%	>99%	CC(C)(C)c1cccc(Oc2cc(-c3cccc(OC(F)(F)F)c3)ccc2CCC(=O)O)c1 [Compound 515]
